Test results published in patent US20170368082A1, “FORMULATIONS OF BRINCIDOFOVIR” (priority 2016, published 2017).

Assay: Blood and plasma pharmacokinetics of total radioactivity after IV or oral [^14C]brincidofovir
Format: in vivo, male Sprague Dawley and Long-Evans rats
Experimental: The study utilized 4 groups of male SD rats (albino), and 3 groups of male LE rats (pigmented); a total of 39 rats. All animals were obtained from Hilltop Lab Animals, Inc. (Scottdale, Pa.). Rats weighed between 214 and 265 g at dosing. Rats in Groups 1, 2, 3, and 4 were administered a single 2-hour (h) IV infusion of [^14C]brincidofovir at a target dose of 15 mg/kg. Rats in Group 5 were administered a single 2-h IV infusion of [^14C]brincidofovir at a target dose of 2 mg/kg. Rats in Group 6, and 7 were administered a single oral gavage administration of [^14C]brincidofovir at a target dose of 15 mg/kg. Three dosing formulations (one for high dose IV, one for low dose IV, and one for PO dose) were prepared at QPS on the day of dosing. The IV formulation for Groups 1, 2, 3, and 4 contained a vehicle of 10 mM sodium phosphate buffer in 5% dextrose solution at pH 8.0(±0.1). The IV formulation for Group 5 contained a vehicle of 16 mM sodium phosphate buffer in 5% dextrose solution at pH 8.0(±0.1), and the PO dosing formulation contained a vehicle of 12.5 mM sodium phosphate buffer at pH 8.0(±0.1). The IV dose formulation for Group 5 and the PO dose formulation for Groups 6 and 7 contained higher concentration of buffer so that the final buffer concentration was approximately 10 mM in all dose formulations.
Blood was collected from each animal in Group 2 (IV infusion) for plasma and blood analysis at the times listed below.
Terminal blood samples were collected by cardiac puncture into pre-labeled blood collection tubes that contained K2EDTA as an anticoagulant. A terminal sample (N=1 per time point) was collected at 0.5, 1, 2, 4, 8, 24, and 72 h after initiation of infusion and the volume was not limited. Triplicate weighed aliquots of blood (0.100 g) were removed and analyzed for total radioactivity using combustion followed by LSC. Blood aliquots were maintained at approximately 4° C. until analysis. The remaining blood samples were maintained on wet ice (approximately 4° C.) and then centrifuged to obtain plasma within 1 h of the blood collection time. Centrifuge settings were recorded in the study notebook. Duplicate aliquots of plasma (0.050 mL) were analyzed for radioactivity using direct counting by LSC, and residual plasma was stored at approximately −70° C. and was saved for possible future analysis under a separate study protocol. Residual red blood cells and the animal carcasses of Group 2 rats were discarded as radioactive waste.
Each rat was deeply anesthetized via isoflurane anesthesia, a blood sample was collected by cardiocentesis (approximately 2 mL) into tubes that contained K2EDTA as the anticoagulant, and the rat was euthanized by being frozen in a hexane/solid carbon dioxide bath for at least 15 min. The blood samples were maintained on wet ice (approximately 4° C.) and then centrifuged to obtain plasma within 1 h of the blood collection time. Centrifuge settings were recorded in the study notebook. Duplicate aliquots of plasma (0.050 mL) were analyzed for radioactivity using direct counting by LSC, and residual plasma was stored at approximately −70° C. and was saved for possible future analysis under a separate study protocol. Residual red blood cells were discarded as radioactive waste.
Triplicate weighed aliquots (˜0.100 g) of blood aliquots (Group 2 only) were combusted in the Packard Sample Oxidizer, followed by LSC analysis.
Urine (0.300 mL), and plasma (0.050 mL) specimens were thawed, if necessary, then aliquoted in duplicate by volume and analyzed by LSC. Volumes or weights of sample aliquots were documented in the study records. Ultima Gold scintillation fluid (5 mL, PerkinElmer) was added to each urine, and plasma aliquot, aliquot were mixed thoroughly, and then analyzed by LSC for radioactivity.

[1] = 0.5 h, SD rats Group 2, 15 mg/kg IV
[2] = 1 h, SD rats Group 2, 15 mg/kg IV
[3] = 2 h, SD rats Group 2, 15 mg/kg IV
[4] = 4 h, SD rats Group 2, 15 mg/kg IV
[5] = 8 h, SD rats Group 2, 15 mg/kg IV
[6] = 24 h, SD rats Group 2, 15 mg/kg IV
[7] = 72 h, SD rats Group 2, 15 mg/kg IV
[8] = Blood, SD rats Group 2, 15 mg/kg IV
[9] = Plasma, SD rats Group 2, 15 mg/kg IV
[10] = SD rats Group 2, 15 mg/kg 2-h IV
[11] = Plasma (LSC), PO 15 mg/kg, Group 7
[12] = Plasma (by LSC), 15 mg/kg, Group 7 vs Group 4

CCCCCCCCCCCCCCCCOCCCOP(=O)(O)CO[C@H](CO)Cn1ccc(N)nc1=O [[^14C]brincidofovir]
Plasma t1/2 (15 mg/kg PO): approximately 5 h
Blood Concentration [1]: 1.666 μg equiv/mL
Blood to Plasma Ratio [1]: 0.65
Plasma Concentration [1]: 2.557 µg/mL
Blood Concentration [2]: 3.017 μg equiv/mL
Blood to Plasma Ratio [2]: 0.65
Plasma Concentration [2]: 4.609 µg/mL
Blood Concentration [3]: 6.393 μg equiv/mL
Blood to Plasma Ratio [3]: 0.62
Plasma Concentration [3]: 10.297 µg/mL
Blood Concentration [4]: 3.845 μg equiv/mL
Blood to Plasma Ratio [4]: 0.72
Plasma Concentration [4]: 5.363 µg/mL
Blood Concentration [5]: 1.584 μg equiv/mL
Blood to Plasma Ratio [5]: 0.81
Plasma Concentration [5]: 1.961 µg/mL
Blood Concentration [6]: 0.294 μg equiv/mL
Blood to Plasma Ratio [6]: 1.26
Plasma Concentration [6]: 0.234 µg/mL
Blood Concentration [7]: 0.057 μg equiv/mL
Blood to Plasma Ratio [7]: 1.27
Plasma Concentration [7]: 0.045 µg/mL
Blood to Plasma Ratio (72 hours, 2 mg/kg IV): 1.42
Blood to Plasma Ratio (72 hours, 15 mg/kg IV): 3.06
AUCall [8]: 50.836 μg equiv-h/mL
AUCinf—obs [8]: 52.028 μg equiv-h/mL
AUClast [8]: 50.836 μg equiv-h/mL
Cmax [8]: 6.393 μg equiv/mL
Tmax [8]: 2 h
t1/2 [8]: 14.5 h
Blood to Plasma Ratio (Group 2 SD rats, 24 h): 1.26
Blood to Plasma Ratio (Group 2 SD rats, 72 h): 1.27
Blood:Plasma Ratio (Group 3/SD, IV 15 mg/kg, 2 h): 0.96
Blood:Plasma Ratio (Group 3/SD, IV 15 mg/kg, 24 h): 1.23
Blood:Plasma Ratio (Group 4/LE, IV 15 mg/kg, 1 h): 1.10
Blood:Plasma Ratio (Group 4/LE, IV 15 mg/kg, 2 h): 1.08
Blood:Plasma Ratio (Group 4/LE, IV 15 mg/kg, 4 h): 0.92
Blood:Plasma Ratio (Group 4/LE, IV 15 mg/kg, 8 h): 1.39
Blood:Plasma Ratio (Group 4/LE, IV 15 mg/kg, 24 h): 1.46
Blood:Plasma Ratio (Group 4/LE, IV 15 mg/kg, 72 h): 3.06
Blood:Plasma Ratio (Group 5/LE, IV 2 mg/kg, 2 h): 0.89
Blood:Plasma Ratio (Group 5/LE, IV 2 mg/kg, 8 h): 1.03
Blood:Plasma Ratio (Group 5/LE, IV 2 mg/kg, 24 h): 1.41
Blood:Plasma Ratio (Group 5/LE, IV 2 mg/kg, 72 h): 1.25
Blood:Plasma Ratio (Group 6/SD, PO 15 mg/kg, 2 h): 0.64
Blood:Plasma Ratio (Group 6/SD, PO 15 mg/kg, 24 h): 0.78
Blood:Plasma Ratio (Group 7/LE, PO 15 mg/kg, 1 h): 1.13
Blood:Plasma Ratio (Group 7/LE, PO 15 mg/kg, 2 h): 0.98
Blood:Plasma Ratio (Group 7/LE, PO 15 mg/kg, 4 h): 0.80
Blood:Plasma Ratio (Group 7/LE, PO 15 mg/kg, 8 h): 0.76
Blood:Plasma Ratio (Group 7/LE, PO 15 mg/kg, 24 h): 0.87
Blood to Plasma Ratio (IV infusion, 1 to 24 hours after start): 0.89-1.46
Blood to plasma ratio, median (IV or oral): 1.00
Plasma AUClast (LE rats, 15 mg/kg PO): 21.0 μg equiv·h/mL
Plasma Cmax of total radioactivity (LE rats, 15 mg/kg PO): 1.5 μg equiv/mL
Plasma Tmax (LE rats, 15 mg/kg PO): 8 h
Plasma concentration at 24 h post-dose (LE rats, 15 mg/kg PO): 0.180 μg equiv/mL
Blood to Plasma Ratio (PO, LE rats, 1 h to 24 h): 0.76-1.13
AUCall [9]: 64.448 μg equiv-h/mL
AUCinf—obs [9]: 65.292 μg equiv-h/mL
AUClast [9]: 64.448 μg equiv-h/mL
Cmax [9]: 10.297 μg equiv/mL
Tmax [9]: 2 h
t1/2 [9]: 13.0 h
Plasma AUClast [10]: 64.4 μg equiv·h/mL
Plasma Cmax of total radioactivity [10]: 10.3 μg equiv/mL
Plasma Tmax [10]: 2 h
Plasma concentration at 72 h post-dose [10]: 0.045 μg equiv/mL
Plasma t1/2 [10]: 13.0 h
Oral bioavailability of radioactivity (AUCall PO/AUCall IV) (blood): 48%
Radioactive bioavailability (oral): approximately 50%
Blood:Plasma Ratio (oral administration, up to 24 h (Groups 6-7)): 0.64-1.13
Oral bioavailability of radioactivity (AUCall PO/AUCall IV) (plasma): 61%

CCCCCCCCCCCCCCCCOCCCOP(=O)(O)CO[C@H](CO)Cn1ccc(N)nc1=O [[^14C] brincidofovir]
AUCall [11]: 22.3885 μg equiv · h/g
AUCall Ratio (PO/IV) [12]: 0.62
Cmax Ratio (PO/IV) [12]: 0.30
AUCall (Plasma (by LSC), 2 h IV infusion 15 mg/kg, Group 4): 36.3690 μg equiv · h/g
Tissue Concentration (168 h) (Plasma (by LSC), 2 h IV infusion 15 mg/kg, Group 4, LLOQ 0.036): BQL
Tissue Concentration (168 h) (Plasma (by LSC), PO 15 mg/kg, Group 7, LLOQ 0.034): BQL

CCCCCCCCCCCCCCCCOCCCOP(=O)(O)CO[C@H](CO)Cn1ccc(N)nc1=O [[14C]brincidofovir]
AUCall [11]: 22.3885 μg equiv · h/g
Tmax [11]: 8 h
